Laboratory results published in ChEMBL document CHEMBL5338795, “Novel Triazoles with Potent and Broad-Spectrum Antifungal Activity In Vitro and In Vivo” (J Med Chem, 2023).
In brackets after ≈: the same amount, converted by molar mass. Activity calls are given as the source filed them. The rule behind the calls is not given here.

What was measured:
Candida albicans [1] = assay: In-vivo antifungal activity against Candida albicans […] infected in skin infected ICR mouse model assessed as wound healing at 0.5 mg/kg, ip pretreated for 24 hrs followed by infection and measured for 5 days; format: functional, organism-based; conditions: time 144.0 hrs
Candida albicans [2] = assay: In-vivo antifungal activity against multidrug-resistant Candida albicans 24D infected in ICR mouse model assessed as median survival time at 1 mg/kg, ip administered once daily pretreated for 24 hrs followed by infection and measured every 2 hrs for 5 days; format: functional; conditions: time 144 hrs
CYP3A4 = assay: Selectivity index, ratio of MIC80 for antifungal activity against Candida albicans to IC50 for inhibition of CYP3A4 in human liver microsomes; format: toxicity; conditions: read-out: Selectivity Index
[3] = target: T1, Lanosterol 14-alpha demethylase (Candida albicans (strain SC5314 / ATCC MYA-2876) (Yeast), UniProt P10613); assay: Inhibition of CYP51 in Candida albicans SC3514 assessed as decrease in eburicol biosynthesis level at 0.5 times MIC80 incubated for 16 hrs by GC-MS analysis (Rvb=21.38%)
T1 sequence (P10613 whole entry): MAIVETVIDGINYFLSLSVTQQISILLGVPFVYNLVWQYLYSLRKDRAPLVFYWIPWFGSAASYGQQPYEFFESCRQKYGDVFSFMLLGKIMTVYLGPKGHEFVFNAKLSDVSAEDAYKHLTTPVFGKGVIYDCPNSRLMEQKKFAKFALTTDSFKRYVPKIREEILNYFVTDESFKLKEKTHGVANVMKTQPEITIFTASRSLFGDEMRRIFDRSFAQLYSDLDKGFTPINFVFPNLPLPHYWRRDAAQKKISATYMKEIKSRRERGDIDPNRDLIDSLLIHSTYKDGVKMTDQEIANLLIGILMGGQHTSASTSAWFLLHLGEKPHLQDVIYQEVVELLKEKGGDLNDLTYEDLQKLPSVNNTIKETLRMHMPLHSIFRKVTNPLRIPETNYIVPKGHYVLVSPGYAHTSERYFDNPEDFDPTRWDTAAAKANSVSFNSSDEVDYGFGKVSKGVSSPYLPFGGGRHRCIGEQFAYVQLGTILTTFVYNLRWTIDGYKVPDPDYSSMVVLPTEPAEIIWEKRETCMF

[4] = target: T1, Lanosterol 14-alpha demethylase; assay: Inhibition of CYP51 in Candida albicans […] assessed as decrease in ergosterol biosynthesis level at 0.5 times MIC80 incubated for 16 hrs by GC-MS analysis (Rvb=67.2%)
Candida parapsilosis = assay: Antifungal activity against Candida parapsilosis ATCC 22019 assessed as reduction in fungal growth incubated for 24 hrs by CLSI based microdilution analysis; format: functional; conditions: Lodderomyces parapsilosis
Aspergillus fumigatus [5] = assay: In-vivo antifungal activity against Aspergillus fumigatus CGMCC3 7795 infected in ip dosed ICR mouse model assessed as median survival time administered once daily pretreated for 24 hrs followed by infection and measured every 2 hrs for 5 days; format: functional, organism-based; conditions: dose 1.0 mg/kg, time 144.0 hrs
Cryptococcus neoformans = assay: Antifungal activity against Cryptococcus neoformans CGMCC3 1563 assessed as reduction in fungal growth incubated for 72 hrs by CLSI based microdilution analysis; format: functional
[6] = Half life in Sprague-Dawley rat at 2 mg/kg, iv measured at 0.08 to 24 hrs by LC-MS/MS analysis; format: ADME, organism-based; conditions: in vivo, time 0.08-24 hrs
Candida albicans [7] = assay: Antifungal activity against fluconazole-resistant Candida albicans 901 assessed as inhibition of fungal growth measured for 24 hrs by CLSI based microdilution analysis; format: functional
Candida tropicalis = assay: Antifungal activity against Candida tropicalis ATCC 750 assessed as reduction in fungal growth incubated for 24 hrs by CLSI based microdilution analysis; format: functional
Candida albicans [8] = assay: Antifungal activity against fluconazole-resistant Candida albicans 13 assessed as inhibition of fungal growth measured for 24 hrs by CLSI based microdilution analysis; format: functional
Candida albicans [9] = assay: In-vivo antifungal activity against Candida albicans […] infected in skin infected ICR mouse model assessed as wound healing at 1 mg/kg, ip pretreated for 24 hrs followed by infection and measured for 5 days; format: functional, organism-based; conditions: time 144.0 hrs
[10] = target: T1, Lanosterol 14-alpha demethylase; assay: Inhibition of CYP51 in Candida albicans […] assessed as decrease in unknown sterol biosynthesis level at 1 times MIC80 incubated for 16 hrs by GC-MS analysis relative to control
Candida albicans [11] = assay: In-vivo antifungal activity against Candida albicans […] infected in skin infected ICR mouse model assessed as reduction in fungal burden in skin at 0.5 mg/kg, ip pretreated for 24 hrs followed by infection and measured for 5 days by Periodic acid-Schiff staining based analysis; format: functional, organism-based; conditions: time 144.0 hrs
[12] = target: T1, Lanosterol 14-alpha demethylase; assay: Inhibition of CYP51 in Candida albicans […] assessed as decrease in unknown sterol biosynthesis level at 0.5 times MIC80 incubated for 16 hrs by GC-MS analysis relative to control
[13] = Clearance in Sprague-Dawley rat at 2 mg/kg, iv measured at 0.08 to 24 hrs by LC-MS/MS analysis; format: ADME, organism-based; conditions: in vivo, time 0.08-24 hrs
Cytochrome P450 3A4 = Cytochrome P450 3A4 (Homo sapiens, UniProt P08684); assay: Inhibition of CYP3A4 in human liver microsomes using testosterone as substrate preincubated for 5 mins followed by NADPH addition and measured after 5 mins by LC-MS/MS analysis; format: ADME, Microsome
Cytochrome P450 3A4, sequence (P08684 whole entry): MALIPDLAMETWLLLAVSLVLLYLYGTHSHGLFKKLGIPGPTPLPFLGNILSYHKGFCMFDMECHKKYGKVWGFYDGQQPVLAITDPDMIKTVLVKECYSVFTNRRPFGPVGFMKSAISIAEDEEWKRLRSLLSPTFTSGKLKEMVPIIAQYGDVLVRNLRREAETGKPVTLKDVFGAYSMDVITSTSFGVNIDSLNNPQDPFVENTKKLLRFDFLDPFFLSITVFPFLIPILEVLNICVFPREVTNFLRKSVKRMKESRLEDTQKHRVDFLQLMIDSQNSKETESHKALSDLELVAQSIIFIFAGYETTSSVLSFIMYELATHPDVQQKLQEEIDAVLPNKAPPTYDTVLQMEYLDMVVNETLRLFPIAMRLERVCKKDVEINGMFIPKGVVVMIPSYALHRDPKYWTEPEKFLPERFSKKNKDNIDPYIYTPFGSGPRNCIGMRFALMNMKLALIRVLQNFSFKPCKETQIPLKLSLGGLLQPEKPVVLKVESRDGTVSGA

Candida albicans [14] = assay: Antifungal activity against fluconazole-resistant Candida albicans 24D assessed as inhibition of fungal growth measured for 24 hrs by CLSI based microdilution analysis; format: functional
Candida albicans [15] = assay: Antifungal activity against Candida albicans SC5314 assessed as reduction in fungal growth incubated for 24 hrs by CLSI based microdilution analysis; format: functional
Candida albicans [16] = assay: Induction of resistance development in Candida albicans SC5314 assessed as fold increase in MIC treated over 20 serial passages by microdilution assay; format: functional
[17] = AUC (0 to infinity) in Sprague-Dawley rat at 2 mg/kg, iv measured at 0.08 to 24 hrs by LC-MS/MS analysis; format: ADME, organism-based; design: time 0.08-24 hrs, dose 2 mg/kg, route iv; conditions: in vivo
Candida albicans [18] = assay: In-vivo antifungal activity against Candida albicans […] infected in ICR mouse model assessed as median survival time at 1 mg/kg, ip administered once daily pretreated for 24 hrs followed by infection and measured every 2 hrs for 5 days; format: functional; conditions: time 144 hrs
[19] = target: T1, Lanosterol 14-alpha demethylase; assay: Inhibition of CYP51 in Candida albicans […] assessed as decrease in ergosterol biosynthesis level at 1 times MIC80 incubated for 16 hrs by GC-MS analysis (Rvb=67.2%)
Candida albicans [20] = assay: Antifungal activity against fluconazole-resistant Candida albicans 102 assessed as inhibition of fungal growth measured for 24 hrs by CLSI based microdilution analysis; format: functional
Candida albicans [21] = assay: In-vivo antifungal activity against Candida albicans […] infected in skin infected ICR mouse model assessed as reduction in fungal burden in skin at 1 mg/kg, ip pretreated for 24 hrs followed by infection and measured for 5 days by Periodic acid-Schiff staining based analysis; format: functional, organism-based; conditions: time 144.0 hrs
[22] = system: Meyerozyma guilliermondii; assay: Antifungal activity against Meyerozyma guilliermondii ATCC 6260 assessed as reduction in fungal growth incubated for 24 hrs by CLSI based microdilution analysis; format: functional
[23] = Hemolytic activity in mouse RBC assessed as hemolysis at 100 microg/ml incubated for 60 mins relative to control; format: toxicity, cell-based, Erythrocyte; conditions: red blood cells (erythrocytes), at 100 µg/mL, read-out: Activity
Candida albicans [24] = assay: Induction of resistance development in Candida albicans SC5314 assessed as increase in MIC treated over 8 serial passages by microdilution assay; format: functional
Aspergillus fumigatus [25] = assay: Antifungal activity against Aspergillus fumigatus CGMCC3 7795 assessed as reduction in fungal growth incubated for 48 hrs by CLSI based microdilution analysis; format: functional
Candida albicans [26] = assay: Antifungal activity against fluconazole-resistant Candida albicans 112869 assessed as inhibition of fungal growth measured for 24 hrs by CLSI based microdilution analysis; format: functional
Candida albicans [27] = assay: Antifungal activity against fluconazole-resistant Candida albicans 15 assessed as inhibition of fungal growth measured for 24 hrs by CLSI based microdilution analysis; format: functional
[28] = target: T1, Lanosterol 14-alpha demethylase; assay: Inhibition of CYP51 in Candida albicans […] assessed as decrease in lanosterol biosynthesis level at 0.5 times MIC80 incubated for 16 hrs by GC-MS analysis relative to control
Nakaseomyces glabratus = assay: Antifungal activity against Candida glabrata ATCC 15126 assessed as reduction in fungal growth incubated for 24 hrs by CLSI based microdilution analysis; format: functional

| SMILES | MIC80 (Candida parapsilosis) [µg/mL] | MIC80 (Cryptococcus neoformans) [µg/mL] | MIC80 (Candida albicans [7]) [µg/mL] | MIC80 (Candida tropicalis) [µg/mL] | MIC80 (Candida albicans [8]) [µg/mL] | Activity (Candida albicans [9]) | MIC80 (Candida albicans [14]) [µg/mL] | MIC80 (Candida albicans [15]) [µg/mL] | MIC80 (Candida albicans [20]) [µg/mL] | Activity (Candida albicans [21]) | MIC80 [22] [µg/mL] | MIC80 (Aspergillus fumigatus [25]) [µg/mL] | MIC80 (Candida albicans [26]) [µg/mL] | MIC80 (Candida albicans [27]) [µg/mL] | MIC80 (Nakaseomyces glabratus) [µg/mL] | further results |
| --- | --- | --- | --- | --- | --- | --- | --- | --- | --- | --- | --- | --- | --- | --- | --- | --- |
| O[C@@](CN1CCN(CCn2ccc3cc(Br)ccc32)CC1)(Cn1cncn1)c1ccc(F)cc1F | 0.008 (≈ 0.0147 µM) | 0.015 (≈ 0.0275 µM) | 1.25 (≈ 2.29 µM) | 0.078 (≈ 0.143 µM) | 0.015 (≈ 0.0275 µM) | Active | 0.031 (≈ 0.0568 µM) | 0.004 (≈ 0.00733 µM) | 0.015 (≈ 0.0275 µM) | Active | 0.015 (≈ 0.0275 µM) | 0.625 (≈ 1.15 µM) | 0.031 (≈ 0.0568 µM) | 0.312 (≈ 0.572 µM) | 0.078 (≈ 0.143 µM) | Activity (Candida albicans [1]): Active; Time (Candida albicans [2]): 12 days; selectivity ratio (CYP3A4): 100; inhibition (INH) [3]: 21.3%; inhibition (INH) [4]: 33.33%; Activity (Aspergillus fumigatus [5]): Dose-Dependent Effect; half-life [6]: 62.4 min; inhibition (INH) [10]: 27.03%; Activity (Candida albicans [11]): Active; inhibition (INH) [12]: 14.9%; clearance [13]: 26.7 mL/min/kg; IC50 (Cytochrome P450 3A4): 400 nM; fold change (FC) (Candida albicans [16]): 8; AUC(0-inf) [17]: 1260 ng·h/mL; Time (Candida albicans [18]): 6 days; inhibition (INH) [19]: 5.41%; hemolysis at 1 h, 100 microg/ml [23]: 1.9%; Activity (Candida albicans [24]): Active; inhibition (INH) [28]: 13.8% |
| OC(CN1CCN(CCCCn2ccc3cc(Br)ccc32)CC1)(Cn1cncn1)c1ccc(F)cc1F (configuration not stated) | 0.062 (≈ 0.108 µM) | 0.031 (≈ 0.0541 µM) | 2.5 (≈ 4.36 µM) | 0.312 (≈ 0.544 µM) | 0.062 (≈ 0.108 µM) | – | 0.125 (≈ 0.218 µM) | 0.062 (≈ 0.108 µM) | 0.062 (≈ 0.108 µM) | – | 0.125 (≈ 0.218 µM) | 1.25 (≈ 2.18 µM) | 0.25 (≈ 0.436 µM) | 1.25 (≈ 2.18 µM) | 0.312 (≈ 0.544 µM) | – |
| Cc1ccc2c(ccn2CCCN2CCN(CC(O)(Cn3cncn3)c3ccc(F)cc3F)CC2)c1 (configuration not stated) | 0.125 (≈ 0.253 µM) | 0.062 (≈ 0.125 µM) | 5 (≈ 10.1 µM) | 0.625 (≈ 1.26 µM) | 0.062 (≈ 0.125 µM) | – | 0.125 (≈ 0.253 µM) | 0.062 (≈ 0.125 µM) | 0.062 (≈ 0.125 µM) | – | 0.125 (≈ 0.253 µM) | 5 (≈ 10.1 µM) | 0.25 (≈ 0.505 µM) | 2.5 (≈ 5.05 µM) | 0.625 (≈ 1.26 µM) | – |
| N#C/C(=C1/SC[C@@H](c2ccc(Cl)cc2Cl)S1)n1ccnc1 | – | – | – | – | – | inactive | – | – | – | Active | – | – | – | – | – | – |
